Results published in patent US8633335B2, “Retinoid prodrug compound” (Research Founation Itsuu Laboratory, priority 2007, dated 2014).

melting point [°C] | Compound
198 to 200 | C[C@H](OC(=O)c1ccc(C(=O)Nc2cc([Si](C)(C)C)cc([Si](C)(C)C)c2)cc1)C(=O)O
185.5 to 186.5 | CC1(C)CCC(C)(C)c2cc(NC(=O)c3ccc(C=O)cc3)ccc21 [Example 23, 4-Formyl-N-(5,6,7,8-tetrahydro-5,5,8,8-tetramethyl-2-naphthyl)benzamide]
226 to 227 | CC1(C)CCC(C)(C)c2cc(NC(=O)c3ccc(/C=C/C(=O)O)cc3)ccc21 [Example 24, 4-[(5,6,7,8-Tetrahydro-5,5,8,8-tetramethyl-2-naphthyl)carbamoyl]cinnamic acid]
